Reference: patent US20230295152A1 (SENDA BIOSCIENCES, INC., priority 2019, published 2023)
Like-named read-outs stand apart in the source and are kept apart here.

Columns and labels:
Type in all cases: in vitro ADME
[1] = Hepatocyte Stability Assay, mouse; as to all read-outs here: tested at 1 µM; conditions: for Mouse hepatocyte clearance: mouse hepatocytes; for Suspension mou. heps Clint (% Qh): suspension mouse hepatocytes
Protocol: Example 7: Hepatocyte Stability Assay
• Preparation of working solutions: 10 mM stock solutions of test compound and positive control were prepared in DMSO. In separate conical tubes, the 10 mM solution of test compound and the positive control were diluted to 100 μM by combining 198 μL of 50% acetonitrile/50% water and 2 μL of 10 mM stock.
Data Analysis: All calculations were carried out using Microsoft Excel. Peak areas were determined from extracted ion chromatograms. In vitro half-life (t1/2) of parent compound was determined by regression analysis of the percent parent disappearance vs. time curve.
The in vitro half-life (in vitro t1/2) was determined from the slope value:
Conversion of the in vitro t1/2 (in min) into the in vitro intrinsic clearance (in vitro CLint, in μL/min/1×10^6 cells) was done using the following equation (mean of duplicate determinations):
V=incubation volume(0.2 mL);
N=number of hepatocytes per well(0.1×10^6 cells).

[2] = Plasma Protein Binding with Ultracentrifugation Method, human; conditions: for fraction unbound at 30 min, 1 μM: human plasma, read-out: Human plasma protein binding (% bound); for fraction unbound at 5.5 h, 1 μM: human, plasma, read-out: Plasma Protein Binding PPB (h) % (converted)
Protocol: (§1) The frozen plasma (stored at −80° C.) was thawed in a 37° C. water bath, followed by centrifugation at 3,220 g for 10 minutes to remove clots. The supernatant was removed into a new tube as the spun plasma. The spun plasma was pre-warmed in a 37° C. water bath for 10 minutes. The stock solutions of test compounds were diluted to 200 μM in DMSO, and then spiked into the plasma. Duplicate samples were prepared. The final concentration of compound was 1.0 μM. The final concentration of organic solvent was 0.5%. Warfarin was used as positive control in the assay. 1.0 mL of the spiked plasma was transferred to a new balance ultracentrifuge tube. Samples were incubated at 37° C., 5% CO2 for 30 minutes. After incubation, the balance ultracentrifuge tubes were centrifuged at 600,000 g for 5.5 hours at 37° C. After centrifugation, 50 μL solution was removed from the center of the ultracentrifuge tubes as the post-ultracentrifugation samples, followed by the addition of 50 μL blank plasma and 400 μL quench solution (acetonitrile containing internal standards (IS, 100 nM Alprazolam, 500 nM Labetalol and 2 μM Ketoprofen)) to precipitate protein and release compounds. Samples were vortexed for 2 minutes, followed by centrifugation at 20,000 g for 15 minutes at room temperature. The supernatant was diluted with ultrapure water and then used for LC-MS/MS analysis. Stability samples was prepared by transferring 50 μL of the spiked plasma to 0.6 mL tubes and incubated at 37° C., 5% CO2 for 0.5 and 6 hours. After incubation, 50 μL PBS (100 mM, pH7.4) and 400 μL quench solution were added to the stability samples. And then stability samples were treated the same way as the post-ultracentrifugation samples. The supernatant was diluted with ultrapure water and then used for LC-MS/MS analysis. 0.5 hour time point samples were also used as no-spun controls. Time 0 samples were prepared by transferring 50 μL spiked plasma to 0.6 mL tubes containing 50 μL PBS, followed by the addition of 400 μL quench solution to precipitate protein and release compound. And then these samples were treated the same way as the post-ultracentrifugation samples. The supernatant was diluted with ultrapure water and then used for LC-MS/MS analysis.
(§2) Data Analysis: All calculations were carried out using Microsoft Excel. The concentrations of test compound in plasma samples and post-ultracentrifugation plasma was determined from peak areas. The percentages of test compound bound was calculated as follows: […]
(§3) “+++” indicates a % bound value less than 50, “++” indicates a % bound value between 50 and 75, and “+” indicates a % bound value above 75.

[3] = Hepatocyte Stability Assay, human; conditions: for CLint scaled: human, plated hepatocytes; for CLint scaled / Human hepatocyte clearance Plated hepatocyte Alliance assay: plated hepatocyte; for Plated heps (% Qh) / Plated heps (% Qh), All: plated human hepatocytes; for Plated heps (% Qh), All: value in brackets marked "All"
[4] = Plasma Protein Binding with Ultracentrifugation Method, mouse; conditions: for fraction unbound at 30 min, 1 μM: mouse plasma, read-out: Mouse plasma protein binding (% bound); for fraction unbound at 5.5 h, 1 μM: mouse, plasma, read-out: Plasma Protein Binding PPB (m) % (converted)
Protocol: as §1, §2, §3

[5] = Pharmaron assay, read-out: Human hepatocyte clearance Plated hepatocyte Pharmaron assay
[6] = Alliance assay, read-out: Human hepatocyte clearance Plated hepatocyte Alliance assay

O=c1c2cc(-c3ccc(Cl)cc3)nc(-c3cccnc3)c2ncn1C[C@@H](O)C(F)(F)F (single isomer, unassigned) [185 enantiomer 1]
Mouse hepatocyte clearance [1]: + (“+” indicates an CLint above 50 mL/min/Kg)

O=c1c2cc(-c3ccc(Cl)cc3)nc(-c3cccnc3)c2ncn1C[C@H](O)C(F)(F)F (single isomer, unassigned) [185 enantiomer 2]
Mouse hepatocyte clearance [1]: + (“+” indicates an CLint above 50 mL/min/Kg)

C[C@@H](CO)n1cnc2c(-c3cncc(F)c3)nc(-c3ccc(OC(F)(F)F)cc3)cc2c1=O [Compound 1, (S)-8-(5-fluoropyridin-3-yl)-3-(1-hydroxypropan-2-yl)-6-(4-(trifluoromethoxy)phenyl)pyrido[3,4-d]pyrimidin-4(3H)-one]
fraction unbound at 30 min, 1 μM [2]: < 0.25

C[C@@H](CO)n1cnc2c(-c3cccc(F)c3)nc(-c3ccc(C(F)(F)F)nc3)cc2c1=O [Compound 8]
fraction unbound at 30 min, 1 μM [2]: < 0.25

CC(C)(O)Cn1cnc2c(-c3cccnc3)nc(-c3ccc(C(F)(F)F)nc3)cc2c1=O [Compound 9]
Suspension mou. heps Clint (% Qh) [1]: < 33 % Qh | fraction unbound at 30 min, 1 μM [2]: < 0.25 | fraction unbound at 5.5 h, 1 μM [2]: 0.109 | CLint scaled [3, 5]: < 20 mL/min/kg | Human hepatocyte clearance Plated hepatocyte Alliance assay ([3]; Alliance assay): +++ (“+++” indicates a CLint value less than 20 mL/min/Kg) | Plated heps (% Qh) [3]: 2.1 % Qh | Plated heps (% Qh), All [3]: 0.6 % Qh | fraction unbound at 30 min, 1 μM [4]: < 0.25 | fraction unbound at 5.5 h, 1 μM [4]: 0.104

C[C@H](n1cnc2c(-c3cnn(C)c3)nc(-c3ccc(Cl)cc3)cc2c1=O)C(C)(C)O [Compound 30]
Mouse hepatocyte clearance [1]: ++ (“++” indicates a CLint between 20 and 50 mL/min/Kg) | CLint scaled [3, 5]: < 20 mL/min/kg | fraction unbound at 30 min, 1 μM [4]: < 0.25

C[C@@H](n1cnc2c(-c3cccnc3)nc(-c3ccc(Cl)cc3)cc2c1=O)C(C)(C)O [Compound 33]
fraction unbound at 30 min, 1 μM [2]: < 0.25

C[C@@H](CO)n1cnc2c(-n3ccnc3)nc(-c3ccc(OC(F)(F)F)cc3)cc2c1=O [Compound 44, (S)-3-(1-hydroxypropan-2-yl)-8-(1H-imidazol-1-yl)-6-(4-(trifluoromethoxy)-phenyl)pyrido[3,4-d]pyrimidin-4(3H)-one]
fraction unbound at 30 min, 1 μM [2]: < 0.25

C[C@@H](CO)n1cnc2c(-c3cccnc3)nc(-c3ccc(C(F)(F)F)cn3)cc2c1=O [Compound 46, (S)-3-(1-hydroxypropan-2-yl)-8-(pyridin-3-yl)-6-(5-(trifluoromethyl)pyridin-2-yl)pyrido[3,4-d]pyrimidin-4(3H)-one]
Mouse hepatocyte clearance [1]: ++ (“++” indicates a CLint between 20 and 50 mL/min/Kg) | Suspension mou. heps Clint (% Qh) [1]: < 33 % Qh | fraction unbound at 30 min, 1 μM [2]: < 0.25 | fraction unbound at 5.5 h, 1 μM [2]: 0.108 | CLint scaled [3, 5]: < 20 mL/min/kg | Human hepatocyte clearance Plated hepatocyte Alliance assay ([3]; Alliance assay): +++ (“+++” indicates a CLint value less than 20 mL/min/Kg) | Plated heps (% Qh) [3]: < 1 % Qh | Plated heps (% Qh), All [3]: 1.0 % Qh | fraction unbound at 30 min, 1 μM [4]: < 0.25 | fraction unbound at 5.5 h, 1 μM [4]: 0.075

C[C@@H](CO)n1cnc2c(-c3cccc(F)c3)nc(-c3ccc(C(F)(F)F)cn3)cc2c1=O [Compound 47, (S)-8-(3-fluorophenyl)-3-(1-hydroxypropan-2-yl)-6-(5-(trifluoromethyl)pyridin-2-yl)pyrido[3,4-d]pyrimidin-4(3H)-one]
fraction unbound at 30 min, 1 μM [2]: < 0.25

O=c1c2cc(-c3ccc(C(F)(F)F)nc3)nc(-c3cccnc3)c2ncn1C[C@H](O)C(F)(F)F [Compound 57]
CLint scaled [3, 6]: < 20 mL/min/kg

C[C@@H](CO)n1cnc2c(-c3cnsc3)nc(-c3ccc(Cl)cc3)cc2c1=O [Compound 58]
Mouse hepatocyte clearance [1]: ++ (“++” indicates a CLint between 20 and 50 mL/min/Kg)

Cn1cc(-c2nc(-c3ccc(C(F)(F)F)nc3)cc3c(=O)n(CC(C)(C)O)cnc23)cn1 [Compound 60]
Mouse hepatocyte clearance [1]: ++ (“++” indicates a CLint between 20 and 50 mL/min/Kg) | fraction unbound at 30 min, 1 μM [2]: < 0.25 | CLint scaled [3, 5]: < 20 mL/min/kg | fraction unbound at 30 min, 1 μM [4]: < 0.25

C[C@@H](CO)n1cnc2c(-c3cnn(C)c3)nc(-c3ccc(C(F)(F)F)nc3)cc2c1=O [Compound 68]
fraction unbound at 30 min, 1 μM [2]: < 0.25 | CLint scaled [3, 6]: < 20 mL/min/kg | fraction unbound at 30 min, 1 μM [4]: < 0.25

C[C@@H](CO)n1cnc2c(-c3cccnc3)nc(-c3ccc(C4CC4)nc3)cc2c1=O [Compound 74]
Mouse hepatocyte clearance [1]: + (“+” indicates an CLint above 50 mL/min/Kg) | fraction unbound at 30 min, 1 μM [2]: < 0.25

O=c1c2cc(-c3ccc(C(F)(F)F)nc3)nc(-c3cccnc3)c2ncn1[C@@H]1COC[C@H]1O [Compound 79]
fraction unbound at 30 min, 1 μM [2]: < 0.25 | CLint scaled [3, 5]: < 20 mL/min/kg | fraction unbound at 30 min, 1 μM [4]: < 0.25

C[C@@H](CO)n1cnc2c(-c3cnn(C)c3)nc(-c3ccc(C4CC4)nc3)cc2c1=O [Compound 83]
CLint scaled [3, 6]: < 20 mL/min/kg

Cn1cc(-c2nc(-c3ccc(C(F)(F)F)cn3)cc3c(=O)n(CC(C)(C)O)cnc23)cn1 [Compound 103, 3-(2-hydroxy-2-methylpropyl)-8-(1-methyl-1H-pyrazol-4-yl)-6-(5-(trifluoromethyl)pyridin-2-yl)pyrido[3,4-d]pyrimidin-4(3H)-one]
fraction unbound at 30 min, 1 μM [2]: < 0.25 | fraction unbound at 30 min, 1 μM [4]: < 0.25

CC(C)(O)Cn1cnc2c(-c3cccnc3)nc(-c3ccc(C(F)(F)F)cn3)cc2c1=O [Compound 105]
Mouse hepatocyte clearance [1]: ++ (“++” indicates a CLint between 20 and 50 mL/min/Kg) | fraction unbound at 30 min, 1 μM [2]: < 0.25 | CLint scaled [3, 5]: < 20 mL/min/kg | fraction unbound at 30 min, 1 μM [4]: < 0.25

O=c1c2cc(-c3ccc(Cl)cc3)nc(-c3cccnc3)c2ncn1[C@H]1COC[C@@H]1O [Compound 125, 6-(4-chlorophenyl)-3-((3S,4R)-4-hydroxytetrahydrofuran-3-yl)-8-(pyridin-3-yl)pyrido[3,4-d]pyrimidin-4(3H)-one]
fraction unbound at 30 min, 1 μM [2]: < 0.25 | CLint scaled [3, 5]: < 20 mL/min/kg | fraction unbound at 30 min, 1 μM [4]: < 0.25

C[C@@H](CO)n1cnc2c(-n3ccnc3)nc(-c3ccc(C(F)(F)F)nc3)cc2c1=O [Compound 163, (S)-3-(1-hydroxypropan-2-yl)-8-(1H-imidazol-1-yl)-6-(6-(trifluoromethyl)pyridin-3-yl)pyrido[3,4-d]pyrimidin-4(3H)-one]
CLint scaled [3, 6]: < 20 mL/min/kg
